In patent US12649735B2 (HAIHE BIOPHARMA CO., LTD., priority 2019, dated 2026):

Assays:
[1] = molecular target: T1, bromodomain protein BRD4 BD2 (Homo sapiens, UniProt O60885); test: HTRF in vitro assay, inhibitory activity against BRD4 BD2; format: binding; conditions: BRD4(2) 30 nM in final system
T1 construct: The proteins BRD4 BD1/BD2 used in the experiment were purchased from Active Motif Company (Cat. No. 31380/31446); purchased Active Motif 31446
Experimental: (§1) The inhibitory activity of the compound against BRD4 BD1 was determined by using Homogeneous Time-Resolved Fluorescence (HTRF).
(§2) The proteins BRD4 BD1/BD2 used in the experiment were purchased from Active Motif Company (Cat. No. 31380/31446); Streptavidin XL-665 (#610SAXLA) and EPIgeneous Binding Domain Kit A (#62BDAPEG) were purchased from Cisbio Bioassays Company, [Lys(5,8,12,16)Ac]H4(1-21)-biotin (#64989), and [Lys(5,8,12,16)Ac]H4(1-25) were products of AnaSpec company; OTX015 and ABBV-075 were purchased from SelleckChem. 384 Well ProxiPlate (#6008280) was purchased from PerkinElmer. The multifunctional microplate reader used for the experimental was a product of PerkinElmer, model: Envision 2104. The experimental water was Millipore-Q pure water.
(§3) 10 mM of stock solution of compound in DMSO was diluted to 1 mM with DMSO and stored, and then diluted 10 times with Binding Domain dilution buffer (purchased from Cisbio Bioassays) for use (the concentration of DMSO in the final system was […]), 1:5 gradient dilution, a total of 5 concentrations.
(§4) 4. Test Method: 1 Batch, 2 Duplicate Wells
(§5) • 1) 5 μL of test compound was transferred to 45 μL of Binding Domain dilution buffer. • 2) 2 μL of 10× compound (4 μL Binding Domain dilution buffer: positive control; 6 μL enzyme buffer (purchased from Cisbio Bioassays): negative control) was transferred to the reaction plate. • 3) 4 μL of 5×BRD4(1) or BRD4(2) (30 nM in final system) was added to the reaction plate. • 4) 4 μL of 5×[Lys(5,8,12,16)Ac]H4(1-21)-biotin was added to the reaction plate, and the plate was covered with a film, and incubated at 37° C. for 30 min. • 5) A detection mixture of SA-XL665 (2×) and anti-H3K9me0-Eu(K) (2×) was prepared in detection buffer (purchased from Cisbio Bioassays). • 6) 10 μL of detection mixture (2×) was added to each well, and incubated for 3 h at room temperature, and the mp value was read using a multi-plate reader Envision. The parameters were set as follows.

[2] = molecular target: T2, bromodomain protein BRD4 BD1 (Homo sapiens, UniProt O60885); test: HTRF in vitro assay, inhibitory activity against BRD4 BD1; format: binding; conditions: BRD4(1) 30 nM in final system
T2 construct: The proteins BRD4 BD1/BD2 used in the experiment were purchased from Active Motif Company (Cat. No. 31380/31446); purchased Active Motif 31380
Experimental: In this example, the half inhibitory activity (IC50) of the compounds of the present invention against the bromodomain protein BRD4 BD1 was determined.
as §1, §2, §3, §4, §5

CCNC(=O)c1cc2c(-c3nc4ncccc4n3-c3c(C)cccc3C)cn(C)c(=O)c2[nH]1 [Compound A31, 4-(1-(2,6-dimethylphenyl)-1H-imidazo[4,5-b]pyridin-2-yl)-N-ethyl-6-methyl-7-oxo-6,7-dihydro-1H-pyrrolo[2,3-c]pyridin-2-carboxamide] was tested, and the IC50 [1] was no more than 10 nM and the IC50 [2] was 10 to 100 nM.
CCNC(=O)c1cc2c(-c3cc(CO)c4ccccc4c3C3CC3)cn(C)c(=O)c2[nH]1 [Compound A32, 4-(1-cyclopropyl-4-(hydroxymethyl)naphthalen-2-yl)-N-ethyl-6-methyl-7-oxo-6,7-dihydro-1H-pyrrolo[2,3-c]pyridin-2-carboxamide] was tested, and the IC50 [1] was no more than 10 nM and the IC50 [2] was 10 to 100 nM.
CCNC(=O)c1cc2c(-c3cn(C)nc3C(C)c3ccccc3)cn(C)c(=O)c2[nH]1 (stereo not drawn) [Compound A33, N-ethyl-6-methyl-4-(1-methyl-3-(1-phenylethyl)-1H-pyrazol-4-yl)-7-oxo-6,7-dihydro-1H-pyrrolo[2,3c]pyridin-2-carboxamide] gave an IC50 [1] of 10 to 100 nM and an IC50 [2] of 100 to 1000 nM.
Work on CCNC(=O)c1cc2c(-c3c(C4CC4)nn(C)c3C3CC3)cn(C)c(=O)c2[nH]1 [Compound A34, 4-(3,5-dicyclopropyl-1-methyl-1H-pyrazol-4-yl)-N-ethyl-6-methyl-7-oxo-6,7-dihydro-1H-pyrrolo[2,3-c]pyridin-2-carboxamide] yielded an IC50 [1] of 10 to 100 nM and an IC50 [2] of 100 to 1000 nM.
CCNC(=O)c1cc2c(-c3c(C(=O)NCC)cnn3C(C)c3ccccc3)cn(C)c(=O)c2[nH]1 (stereo not drawn) [Compound A35, N-ethyl-4-(4-(ethylcarbamoyl)-1-(1-phenylethyl)-1H-pyrazol-5-yl)-6-methyl-7-oxo-6,7-dihydro-1H-pyrrolo[2,3-c]pyridin-2-carboxamide] was tested, and the IC50 [1] was 10 to 100 nM and the IC50 [2] was 100 to 1000 nM.
CCNC(=O)c1cc2c(-c3nc(CO)cn3-c3ccc(C)cc3)cn(C)c(=O)c2[nH]1 [Compound A36, N-ethyl-4-(4-(hydroxymethyl)-1-(p-tolyl)-1H-imidazol-2-yl)-6-methyl-7-oxo-6,7-dihydro-1H-pyrrolo[2,3-c]pyridin-2-carboxamide] gave an IC50 [1] of 10 to 100 nM and an IC50 [2] of 100 to 1000 nM.
CCNC(=O)c1cc2c(-c3cc(C(C)=O)c4cccnc4c3OC)cn(C)c(=O)c2[nH]1 [Compound A37, 4-(5-acetyl-8-methoxyquinolin-7-yl)-N-ethyl-6-methyl-7-oxo-6,7-dihydro-1H-pyrrolo[2,3-c]pyridin-2-carboxamide] gave an IC50 [1] of 10 to 100 nM and an IC50 [2] of 100 to 1000 nM.
For COc1ccc(C(c2ccccc2)c2cn(C)c(=O)c3[nH]c(C(=O)Nc4cnn(C)c4)cc23)cc1 (stereo not drawn) [Compound A38, 4-((4-methoxyphenyl)(phenyl)methyl)-6-methyl-N-(1-methyl-1H-pyrazol-4-yl)-7-oxo-6,7-dihydro-1H-pyrrolo[2,3-c]pyridin-2-carboxamide], the IC50 [1] was 10 to 100 nM and the IC50 [2] was 100 to 1000 nM.
Work on CCNC(=O)c1cc2c(C(O)c3ccc4c(ccn4C)c3)cn(C)c(=O)c2[nH]1 (stereo not drawn) [Compound A39, N-ethyl-4-(hydroxy(1-methyl-1H-indol-5-yl)methyl)-6-methyl-7-oxo-6,7-dihydro-1H-pyrrolo[2,3-c]pyridin-2-carboxamide] yielded an IC50 [1] of 10 to 100 nM and an IC50 [2] of 100 to 1000 nM.
CCNC(=O)c1cc2c(-c3cc(C(C)(C)O)c4cccnc4c3C)cn(C)c(=O)c2[nH]1 [Compound A40, N-ethyl-4-(5-(2-hydroxypropan-2-yl)-8-methylquinolin-7-yl)-6-methyl-7-oxo-6,7-dihydro-1H-pyrrolo[2,3-c]pyridin-2-carboxamide] showed an IC50 [1] of no more than 10 nM and an IC50 [2] of 10 to 100 nM.
CC(c1ccccc1)c1cn(C)c(=O)c2cc(-c3cn(C)nc3[N+](=O)[O-])sc12 (stereo not drawn) [Compound A41, 5-methyl-2-(1-methyl-3-nitro-1H-pyrazol-4-yl)-7-(1-phenylethyl)thieno[3,2-c]pyridin-4(5H)-one] showed an IC50 [1] of 100 to 1000 nM and an IC50 [2] of 100 to 1000 nM.
For CC(c1ccccc1)c1cn(C)c(=O)c2cc(-c3cn(C)nc3N)sc12 (stereo not drawn) [Compound A42, 2-(3-amino-1-methyl-1H-pyrazol-4-yl)-5-methyl-7-(1-phenylethyl)thieno[3,2-c]pyridin-4(5H)-one], the IC50 [1] was 10 to 100 nM and the IC50 [2] was 100 to 1000 nM.
Compound COC(c1ccccc1)c1cn(C)c(=O)c2[nH]c(-c3cnn(C)c3)cc12 (stereo not drawn) [Compound A43, 4-(methoxy(phenyl)methyl)-6-methyl-2-(1-methyl-1H-pyrazol-4-yl)-1,6-dihydro-7H-pyrrolo[2,3-c]pyridin-7-one] has an IC50 [1] of 10 to 100 nM and an IC50 [2] of 100 to 1000 nM.
Compound Cn1cc(-c2cc3c(C(O)c4ccccc4)cn(C)c(=O)c3[nH]2)cn1 (stereo not drawn) [Compound A44] has an IC50 [1] of 10 to 100 nM and an IC50 [2] of 100 to 1000 nM.
CC(c1ccccc1)c1cn(C)c(=O)c2[nH]c(-c3cncnc3)cc12 (stereo not drawn) [Compound A45] was tested, and the IC50 [1] was no more than 10 nM and the IC50 [2] was 10 to 100 nM.
In the case of CC(c1ccccc1)c1cn(C)c(=O)c2[nH]c(-c3ccoc3)cc12 (stereo not drawn) [Compound A46], the IC50 [1] is reported as no more than 10 nM and the IC50 [2] is reported as 10 to 100 nM.
In the case of CC(c1ccccc1)c1cn(C)c(=O)c2[nH]c(-c3c[nH]cn3)cc12 (stereo not drawn) [Compound A47], the IC50 [1] is reported as no more than 10 nM and the IC50 [2] is reported as 10 to 100 nM.
With Cc1ccc(C2CCC(=O)N2c2cn(C)c(=O)c3[nH]c(-c4cnn(C)c4)cc23)cc1 (stereo not drawn) [Compound A48, 6-methyl-2-(1-methyl-1H-pyrazol-4-yl)-4-(2-oxo-5-(p-tolyl)pyrrolidin-1-yl)-1,6-dihydro-7H-pyrrolo[2,3-c]pyridin-7-one] the IC50 [1] was 10 to 100 nM and the IC50 [2] was 100 to 1000 nM.
In the case of Cc1cc(C)cc(-n2c(-c3cn(C)c(=O)c4[nH]c(-c5cnn(C)c5)cc34)nc3ncccc32)c1 [Compound A49, 4-(1-(3,5-dimethylphenyl)-1H-imidazo[4,5-b]pyridin-2-yl)-6-methyl-2-(1-methyl-1H-pyrazol-4-yl)-1,6-di hydro-7H-pyrrolo[2,3-c]pyridin-7-one], the IC50 [1] is reported as no more than 10 nM and the IC50 [2] is reported as 10 to 100 nM.
For Cc1ccc(-n2c(-c3cn(C)c(=O)c4[nH]c(-c5cnn(C)c5)cc34)nc3ncccc32)cc1 [Compound A50], the IC50 [1] was 10 to 100 nM and the IC50 [2] was 10 to 100 nM.
Cc1cc(C)cc(-n2c(-c3cn(C)c(=O)c4[nH]c(C(=O)Nc5ccn(C)n5)cc34)nc3ncccc32)c1 [Compound A51] gave an IC50 [1] of no more than 10 nM and an IC50 [2] of 10 to 100 nM.
Compound Cc1cc(F)cc(C)c1-n1c(-c2cn(C)c(=O)c3[nH]c(C(=O)Nc4ccn(C)n4)cc23)nc2ncccc21 [Compound A52] has an IC50 [1] of no more than 10 nM and an IC50 [2] of 10 to 100 nM.
Compound Cn1ccc(NC(=O)c2cc3c(-c4nc5ncccc5n4-c4ccccc4)cn(C)c(=O)c3[nH]2)n1 [Compound A53] has an IC50 [1] of 10 to 100 nM and an IC50 [2] of 100 to 1000 nM.
For Cc1ccc(C2CCC(=O)N2c2cn(C)c(=O)c3[nH]c(C(=O)Nc4cn[nH]c4)cc23)cc1 (stereo not drawn) [Compound A54], the IC50 [1] was 10 to 100 nM and the IC50 [2] was 100 to 1000 nM.
Cc1ccc(C2c3ccccc3C(=O)N2c2cn(C)c(=O)c3[nH]c(C(=O)Nc4cn[nH]c4)cc23)cc1 (stereo not drawn) [Compound A55] showed an IC50 [1] of 10 to 100 nM and an IC50 [2] of 100 to 1000 nM.
Cc1ccc(-c2cn(C)nc2-c2cn(C)c(=O)c3[nH]c(C(=O)Nc4cn[nH]c4)cc23)cc1 [Compound A56, 6-methyl-4-(1-methyl-4-(p-tolyl)-1H-pyrazol-3-yl)-7-oxo-N-(1H-pyrazol-4-yl)-6,7-dihydro-1H-pyrrolo[2,3-c]pyridin-2-carboxamide] gave an IC50 [1] of 10 to 100 nM and an IC50 [2] of 100 to 1000 nM.
For CC(c1ccccc1)c1cn(C)c(=O)c2cc(-c3n[nH]cc3N)oc12 (stereo not drawn) [Compound A58, 2-(4-amino-1H-pyrazol-3-yl)-5-methyl-7-(1-phenethyl)furo[3,2-c]pyridin-4(5H)-one], the IC50 [1] was no more than 10 nM and the IC50 [2] was 100 to 1000 nM.
CC(c1ccccc1)c1cn(C)c(=O)c2cc(-c3cnn(C4COC4)c3)oc12 (stereo not drawn) [Compound A59, 5-methyl-2-(1-(oxetan-3-yl)-1H-pyrazol-4-yl)-7-(1-phenethyl)furo[3,2-c]pyridin-4(5H)-one] gave an IC50 [1] of 10 to 100 nM and an IC50 [2] of 100 to 1000 nM.
In the case of CC(c1ccccc1)c1cn(C)c(=O)c2c(C(=O)O)c(-c3cnn(C)c3)oc12 (stereo not drawn) [Compound A60, 5-methyl-2-(1-methyl-1H-pyrazol-4-yl)-4-oxo-7-(1-phenethyl)-4,5-dihydrofuro[3,2-c]pyridin-3-carboxylic acid], the IC50 [1] is reported as 10 to 100 nM and the IC50 [2] is reported as 100 to 1000 nM.
CC(c1ccccc1)c1cn(C)c(=O)c2c(NC(=O)OC(C)(C)C)c(-c3cnn(C)c3)oc12 (stereo not drawn) [Compound A61, tert-butyl (5-methyl-2-(1-methyl-1H-pyrazol-4-yl)-4-oxo-7-(1-phenethyl)-4,5-dihydrofuro[3,2-c]pyridin-3-yl carbamate] gave an IC50 [1] of no more than 10 nM and an IC50 [2] of 100 to 1000 nM.
